logP data for 15 molecules are collected here from the SangsterLogP compilation.

As usually defined, the logP is a log measure of how a compound divides between an organic and an aqueous phase. A higher logP goes with a more lipophilic compound.

Each structure is given as a SMILES string.

The molecule `OCCNc1nc(Cl)nc2c1ncn2[C@H]1C[C@@H](O)[C@@H](CO)O1` registered a logP of 0.47. The molecule `Nc1nc(Cl)nc2c1nc(Br)n2C1CC(O)C(CO)O1` (stereo not given) showed a logP of 0.9. In the case of `OC[C@H]1O[C@@H](n2nnc3ccccc32)C[C@@H]1O`, the logP is 0.55. Next, `CCn1cnc2c(N)nc(Cl)nc21`: 1.16; `OCC1OC(n2cnc3c(NCc4ccccc4)nc(Cl)nc32)CC1O` (stereo not given): 2.48; `OC[C@H]1O[C@@H](n2cnc3ccccc32)C[C@@H]1O`: 0.69. Next, `Nc1nc(Cl)nc2c1cnn2[C@H]1C[C@H](O)[C@@H](CO)O1`: 0.38; `Nc1nc(Br)nc2c1ncn2C1CC(O)C(CO)O1` (stereo not given): 0.41. As for `Nc1ncnc2c1ncn2[C@H]1C[C@H](O)[C@@H](CO)O1`, the logP was -0.68.

The molecule `Nc1nc(Cl)nc2nc[nH]c12` registered a logP of 0.35. Next, `Nc1nc(Cl)nc2c1ccn2[C@H]1C[C@H](O)[C@@H](CO)O1`: 0.38; `OCC1OC(n2cnc3c(NC4CCCCC4)nc(Cl)nc32)CC1O` (stereo not given): 3; `CNc1nc(Cl)nc2c1ncn2[C@H]1C[C@H](O)[C@@H](CO)O1`: 0.91. `OC[C@H]1O[C@@H](n2nc3ccccc3n2)C[C@@H]1O` came in with a log partition coefficient (logP) of 1.06. In turn, `Nc1ncnc2ncn([C@H]3C[C@H](O)[C@@H](CO)O3)c12` came in with a logP of -0.01.
